Reference: patent US7427637B2, “Mitotic kinesin inhibitors” (Merck & Co. Inc., priority 2003, dated 2008)

target: T1, human KSP motor domain (KSP(367H)) (Homo sapiens, UniProt P52732); assay: Kinesin ATPase in vitro assay; format: biochemical; conditions: kinesin motor domain with microtubules, 1 mM ATP, 23° C.; free phosphate by quinaldine red/ammonium molybdate, absorbance 540 nm
T1 construct: were used to amplify the motor domain and the neck linker region; made in house; host or cells: E. coli BL21 (DE3), pRSETa
T1 sequence (P52732 18-359 limits assumed): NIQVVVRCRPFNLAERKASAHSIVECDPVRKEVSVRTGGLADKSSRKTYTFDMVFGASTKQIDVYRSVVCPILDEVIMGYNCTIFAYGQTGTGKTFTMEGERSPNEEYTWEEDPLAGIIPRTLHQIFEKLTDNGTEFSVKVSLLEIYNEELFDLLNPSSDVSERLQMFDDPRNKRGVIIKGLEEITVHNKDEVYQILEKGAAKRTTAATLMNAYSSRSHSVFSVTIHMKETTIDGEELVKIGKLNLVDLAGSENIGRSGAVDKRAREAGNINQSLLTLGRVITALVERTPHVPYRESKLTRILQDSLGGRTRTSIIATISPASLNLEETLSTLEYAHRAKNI
Text: I. Kinesin ATPase In Vitro Assay
Cloning and Expression of Human Poly-histidine Tagged KSP Motor Domain_(KSP(367H))
Plasmids for the expression of the human KSP motor domain construct were cloned by PCR using a pBluescript full length human KSP construct (Blangy et al., Cell, vol. 83, pp 1159-1169, 1995) as a template. The N-terminal primer 5′-[…] (SEQ. ID. NO.: 1) and the C-terminal primer 5′-[…] […] (SEQ. ID. NO.: 2) were used to amplify the motor domain and the neck linker region. The PCR products were digested with AseI and XhoI, ligated into the NdeI/XhoI digestion product of pRSETa (Invitrogen) and transformed into E. coli BL21 (DE3).
Cells were grown at 37° C. to an OD600 of 0.5. After cooling the culture to room temperature expression of KSP was induced with 100 μM IPTG and incubation was continued overnight. Cells were pelleted by centrifugation and washed once with ice-cold PBS. Pellets were flash-frozen and stored −80° C.
Cell pellets were thawed on ice and resuspended in lysis buffer (50 mM K-HEPES, pH 8.0, 250 mM KCl, 0.1% Tween, 10 mM imidazole, 0.5 mM Mg-ATP, 1 mM PMSF, 2 mM benzimidine, 1× complete protease inhibitor cocktail (Roche)). Cell suspensions were incubated with 1 mg/ml lysozyme and 5 mM β-mercaptoethanol on ice for 10 minutes, followed by sonication (3×30 sec). All subsequent procedures were performed at 4° C. Lysates were centrifuged at 40,000×g for 40 minutes. Supernatants were diluted and loaded onto an SP Sepharose column (Pharmacia, 5 ml cartridge) in buffer A (50 mM K-HEPES, pH 6.8, 1 mM MgCl2, 1 mM EGTA, 10 μM Mg-ATP, 1 mM DTT) and eluted with a 0 to 750 mM KCl gradient in buffer A. Fractions containing KSP were pooled and incubated with Ni-NTA resin (Qiagen) for one hour. The resin was washed three times with buffer B (Lysis buffer minus PMSF and protease inhibitor cocktail), followed by three 15-minute incubations and washes with buffer B. Finally, the resin was incubated and washed for 15 minutes three times with buffer C (same as buffer B except for pH 6.0) and poured into a column. KSP was eluted with elution buffer (identical to buffer B except for 150 mM KCl and 250 mM imidazole). KSP-containing fractions were pooled, made 10% in sucrose, and stored at −80° C.
Microtubules are prepared from tubulin isolated from bovine brain. Purified tubulin (>97% MAP-free) at 1 mg/ml is polymerized at 37° C. in the presence of 10 μM paclitaxel, 1 mM DTT, 1 mM GTP in BRB80 buffer (80 mM K-PIPES, 1 mM EGTA, 1 mM MgCl2 at pH 6.8). The resulting microtubules are separated from non-polymerized tubulin by ultracentrifugation and removal of the supernatant. The pellet, containing the microtubules, is gently resuspended in 10 μM paclitaxel, 1 mM DTT, 50 μg/ml ampicillin, and 5 μg/ml chloramphenicol in BRB80.
The kinesin motor domain is incubated with microtubules, 1 mM ATP (1:1 MgCl2: Na-ATP), and compound at 23° C. in buffer containing 80 mM K-HEPES (pH 7.0), 1 mM EGTA, 1 mM DTT, 1 mM MgCl2, and 50 mM KCl. The reaction is terminated by a 2-10 fold dilution with a final buffer composition of 80 mM HEPES and 50 mM EDTA (or, alternately, with a 1:1 addition of reaction volume to stop buffer (1.8M KCl and 50 mM EDTA)). Free phosphate from the ATP hydrolysis reaction is measured via a quinaldine red/ammonium molybdate assay by adding a 1.5 times volume of quench C (e.g., to a mixture of 40 μl reaction volume+40 μl stop buffer is then added 120 μl quench C). Quench A contains 0.1 mg/ml quinaldine red and 0.14% polyvinyl alcohol; quench B contains 12.3 mM ammonium molybdate tetrahydrate in 1.15 M sulfuric acid. Quench C is a 2:1 ratio of quench A:quench B The reaction is incubated for 5-10 minutes at 23° C., and the absorbance of the phospho-molybdate complex is measured at 540 nm.

| IC50 [µM] | Compound |
| --- | --- |
| ≤ 50 | O=C1OCC2C(c3cc(F)ccc3F)=CC(c3ccccc3)N12 (racemic) [Compound 1-9a, (±)-(5S,7aR and 5R,7aS)-7-(2,5-Difluorophenyl)-5-phenyl-2,7a-dihydro-1H-pyrrole[1,2-c][1,3]oxazol-3-one] |
| ≤ 50 | O=C1CN2[C@@H](CN1)C(c1cc(F)ccc1F)=C[C@H]2c1ccccc1 (racemic) [Compound 5-1, (±)-(6S,8aR and 6R,8aS)-8-(2,5-Difluorophenyl)-6-phenyl-1,2,6,8a-tetrahydropyrrolo[1,2-a]pyrazin-3(4H)-one] |
| ≤ 50 | CN1C[C@H]2C(c3cc(F)ccc3F)=C[C@@H](c3ccccc3)N2C1=O (racemic) [Compound 2A-1a, (±)-(5S,7aR)-7-(2,5-Difluorophenyl)-2-methyl-5-phenyl-1,2,5,7a-tetrahydro-3H-pyrrolo[1,2-c]imidazol-3-one] |
| ≤ 50 | O=C1CNCC2C(c3cc(F)ccc3F)=CC(c3ccccc3)N12 (racemic) [Compound 3-2b, (±)-(2S,5S and 2R,5R)-7-(2,5-Difluorophenyl)-5-phenyl-1,2,5,7a-tetrahydro-3H-pyrrolo[1,2-a]pyrazin-4(1H)-one] |
| ≤ 50 | CCN(CC)CCN1C[C@H]2C(c3cc(F)ccc3F)=C[C@@H](c3ccccc3)N2C1=O (racemic) [Compound 2A-1d, (±)-(5S,7aR)-7-(2,5-Difluorophenyl)-2-[2-(diethylamino)ethyl]-5-phenyl-1,2,5,7a-tetrahydro-3H-pyrrolo[1,2-c]imidazol-3-one] |
| ≤ 50 | O=C1NCC2C(c3cc(F)ccc3F)=CC(c3ccccc3)N12 (racemic) [Compound 2-4a, (±)-7-(2,5-Difluorophenyl)-5-phenyl-1,2,5,7a-tetrahydro-3H-pyrrolo[1,2-c]imidazol-3-one] |
| ≤ 50 | CCN1C[C@H]2C(c3cc(F)ccc3F)=C[C@@H](c3ccccc3)N2C1=O (racemic) [Compound 2A-1b, (±)-(5S,7aR)-7-(2,5-Difluorophenyl)-2-ethyl-5-phenyl-1,2,5,7a-tetrahydro-3H-pyrrolo[1,2-c]imidazol-3-one] |
| ≤ 50 | O=C1CNC[C@H]2C(c3cc(F)ccc3F)=C[C@@H](c3ccccc3)N12 (racemic) [Compound 3-2a, (±)-(2S,5R and 2R,5S)-7-(2,5-Difluorophenyl)-5-phenyl-1,2,5,7a-tetrahydro-3H-pyrrolo[1,2-a]pyrazin-4(1H)-one] |
| ≤ 50 | CN(C)CCN1C[C@H]2C(c3cc(F)ccc3F)=C[C@@H](c3ccccc3)N2C1=O (racemic) [Compound 2A-1c, (±)-(5S,7aR)-7-(2,5-Difluorophenyl)-2-[2-(dimethylamino)ethyl]-5-phenyl-1,2,5,7a-tetrahydro-3H-pyrrolo[1,2-c]imidazol-3-one] |
| ≤ 50 | CN1CC(=O)N2[C@@H](C1)C(c1cc(F)ccc1F)=C[C@H]2c1ccccc1 (racemic) [Compound 4-1, (±)-(6S,8aR and 6R,8aS)-8-(2,5-Difluorophenyl)-2-methyl-6-phenyl-2,3,6,8a-tetrahydropyrrolo[1,2-a]pyrazin-4(1H)-one] |
